Consider one compound from patent US9082528B2, “Method for making carbon nanotube-loaded electrode, carbon nanotube-loaded electrode made by the method, and applications thereof” (priority 2011, dated 2015).

As a reminder, the % Inhibition is the relative decrease from the control value, in per cent.

The test system of this test is acetylcholine esterase (AChE). In words: Electrochemical (CV) inhibition of AChE activity on AChE/ChO/POD/CNT/DEN(PtNP)s-loaded SPCGC electrode. In kind it is biochemical. To be noted: for I x/Io: anodic peak current, 10 mM phosphate buffer pH 7.4 with ACh. As for the experimental part:
AChE, ChO and POD enzymes were adsorbed on CNT/DEN(PtNP)s-loaded SPCGC electrode. The aqueous solution containing AChE/ChO/POD was dropped on the CNT/DEN(PtNP)s-loaded SPCGC surface and the adsorption was allowed to occur for 24 hours. The AChE-ChO-POD-adsorbed CNT/DEN(PtNP)s-loaded (AChE/ChO/POD/CNT/DEN(PtNP)s-loaded) SPCGC DEP chip was stored at 4° C. till use.
Electrochemical detection of a DZN compound on the AChE/ChO/POD/CNT/DEN(PtNP)s-loaded SPCGC electrode was performed on a CV (a Hokuto-Denko HZ-3000) apparatus in the potential range of −0.6 to 1 V at a scan rate of 20 mVs^−1 in a phosphate buffer solution. All the measurements were carried out at room temperature in 2 cm^3 of a test solution, which has to cover the circular working electrode area of the sensors supported vertically during the CV measurement. The anodic oxidation peak at 0.06-0.1 V was used to evaluate the inhibition of AChE activity by DZN. The enzyme inhibition was calculated according to the following equation (Equation 1) (Dounin et al., Analytica Chimica Acta 2010, 669, 63-67): % inhibition=100(Io−Ix)/Io [Equation 1], wherein Io is the anodic peak current of oxidation at 0.06-0.1 V of a control sample in the absence of DZN, while Ix refers to the peak current of DZN-containing samples.
For the electrochemical detection of DZN compound, CNT/DEN(PtNP)s hybrids at M:D 0.4:1 was fabricated onto the SPCGC electrode. Then, an AChE/ChO/POD/CNT/DEN(PtNP)s-loaded SPCGC biosensor was developed by loading 10 mm^3 of 2.21 U of AChE, 4.3 U of ChO and 44.7 U of POD on the CNT/DEN(PtNP)s-loaded SPCGC electrode. The bioactivity of the AChE/ChO/POD/CNT/DEN(PtNP)s-loaded SPCGC biosensor was investigated by CV at room temperature.
The approach for determination of one (DZN) of organophosphate pesticides by this biosensor is based on the inhibition of AChE activity. In the absence of DZN, AChE hydrolyzes Ach to acetic acid and choline (Ch) (Lin et al., Electroanalysis, 2004, 16(1-2), 145-149):
The inhibition of AChE activity by DZN was determined by measuring the oxidation or reduction current of H2O2 which is correlated to the concentration of Ch produced by AChE.
This anodic oxidation peak is attributed to the oxidation of hydrogen peroxide (H2O2) generated from the enzymatic reaction of AChE and ChO. The peak potential of H2O2 oxidation by the present electrode was lower than by an AChE/ChO/CNT electrode (0.50 V) (Lin et al., Electroanalysis, 2004, 16(1-2), 145-149). […] Meanwhile, a very small reduction peak around −0.2 V was also observed at only the first CV scan. This peak is attributed to the reduction of the generated H2O2 by POD. […] Therefore, the inhibition of AChE by DZN can be determined by the decrease in the oxidation current at 0.09 V.
The obtained currents of anodic oxidation peak were utilized to evaluate the enzyme activity, […], and the inhibition value, (Io−Ix)/Io, where Io and Ix are current densities in ACh solutions without and with DZN.

On to `CCOP(=S)(OCC)Oc1cc(C)nc(C(C)C)n1` [DZN, O,O-diethyl 0-2-isopropyl-6-methyl(pyrimidine-4-yl)phosphorothioate], for which the “% Enzyme Activity” value (DZN 0.05 ppm) is 78.6%; the “% Enzyme Activity” value (DZN 0.1 ppm) was found to be 59.1%; the “% Enzyme Activity” value (DZN 0.5 ppm) is given as 52.5%; the “% Enzyme Activity” value (DZN 1 ppm) is 17.2%; the “% Enzyme Activity” value (DZN 5 ppm) was 23.2%; the “% Enzyme Activity” value (DZN 10 ppm) is on record as 13.4%. Besides, the “% Inhibition” value reads like this: (DZN 0.05 ppm) 21.4%; (DZN 0.1 ppm) 40.9%; (DZN 0.5 ppm) 47.6%; (DZN 1 ppm) 82.8%; (DZN 5 ppm) 76.8%; (DZN 10 ppm) 86.6%. The “[Io-Ix]/Io” value (DZN 0.05 ppm) was 0.214; the “[Io-Ix]/Io” value (DZN 0.1 ppm) turned out to be 0.409; the “[Io-Ix]/Io” value (DZN 0.5 ppm) turned out to be 0.475; the “[Io-Ix]/Io” value (DZN 1 ppm) amounted to 0.828; the “[Io-Ix]/Io” value (DZN 5 ppm) was 0.768; the “[Io-Ix]/Io” value (DZN 10 ppm) was determined as 0.866. Besides, the “I x/Io” value is, setting by setting: (DZN 0.05 ppm) 0.785; (DZN 0.1 ppm) 0.590; (DZN 0.5 ppm) 0.524; (DZN 1 ppm) 0.171; (DZN 5 ppm) 0.231; (DZN 10 ppm) 0.133.
